Experimental data reported in the NIST ThermoML archive (doi:10.1016/j.fluid.2018.07.032).
± gives the expanded uncertainty stated by the source.

Conditions: 1825 kPa, Liquid, Pendant drop shape

Row | Compound | interfacial tension (383 K) | interfacial tension (403 K) | interfacial tension (423 K) | interfacial tension (443 K)
1 | Cc1ccccc1 [toluene] + O | 28.6 ± 0.1 mN/m | 26.4 ± 0.1 mN/m | 23.8 ± 0.2 mN/m | 20.2 ± 0.2 mN/m
2 | CCCCCCCCCCCC [dodecane] + O | 40 ± 0.2 mN/m | 36.5 ± 0.2 mN/m | 32.9 ± 0.2 mN/m | 28.5 ± 0.2 mN/m
